# Columns and labels:
# barnyard grass [1] = experiment: Test Example 3: herbicidal effect by foliage application, Wagner pot (Table 18, symbol H); type: in vivo, barnyard grass (Echinochloa crus-galli)
# Method in brief: (§1)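 Plants were sown in alluvial soil held under 0.1–0.5 cm standing water and grown 14 days in a greenhouse at 25–30 °C. An emulsifiable formulation, water-diluted to the set dose, was then sprayed onto the foliage, and effects were scored three weeks later using previously defined criteria.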
# Chinese sprangletop = experiment: Test Example 3: herbicidal effect by foliage application, Wagner pot (Table 18, symbol D); type: in vivo, chinese sprangletop (Leptochloa chinensis)
# Method in brief: as §1
# rice flat sedge = experiment: Test Example 3: herbicidal effect by foliage application, Wagner pot (Table 18, symbol E); type: in vivo, rice flat sedge (Cyperus iria)
# Method in brief: as §1
# southern crabgrass = experiment: Test Example 5: herbicidal effect by foliage application, plastic box (Table 20, symbol F); type: in vivo, southern crabgrass (Digitaria ciliaris); details: 320 g/ha, evaluated three weeks after application
# Method in brief: (§2)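 Plants were sown into sterilized diluvial soil under about 1.5 cm cover and kept in a greenhouse at 25° C. to 30° C. Fourteen days on, foliage received an even spray of the diluted emulsion. Herbicidal or crop effect was judged three weeks afterwards.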
# green foxtail = experiment: Test Example 5: herbicidal effect by foliage application, plastic box (Table 20, symbol G); type: in vivo, green foxtail (Setaria viridis); details: 320 g/ha, evaluated three weeks after application
# Method in brief: as §2
# barnyard grass [2] = experiment: Test Example 5: herbicidal effect by foliage application, plastic box (Table 20, symbol H); type: in vivo, barnyard grass (Echinochloa crus-galli); details: 320 g/ha, evaluated three weeks after application
# Method in brief: as §2
# wild oat = experiment: Test Example 5: herbicidal effect by foliage application, plastic box (Table 20, symbol I); type: in vivo, wild oat (Avena fatua); details: 320 g/ha, evaluated three weeks after application
# Method in brief: as §2
# blackgrass = experiment: Test Example 5: herbicidal effect by foliage application, plastic box (Table 20, symbol J); type: in vivo, blackgrass (Alopecurus myosuroides); details: 320 g/ha, evaluated three weeks after application
# Method in brief: as §2
# Italian ryegrass = experiment: Test Example 5: herbicidal effect by foliage application, plastic box (Table 20, symbol K); type: in vivo, Italian ryegrass (Lolium multiflorum); details: 320 g/ha, evaluated three weeks after application
# Method in brief: as §2
# windgrass = experiment: Test Example 5: herbicidal effect by foliage application, plastic box (Table 20, symbol L); type: in vivo, windgrass (Apera spica-venti); details: 320 g/ha, evaluated three weeks after application
# Method in brief: as §2
# velvetleaf = experiment: Test Example 5: herbicidal effect by foliage application, plastic box (Table 20, symbol M); type: in vivo, velvetleaf (Abutilon theophrasti); details: 320 g/ha, evaluated three weeks after application
# Method in brief: as §2
# redroot pigweed = experiment: Test Example 5: herbicidal effect by foliage application, plastic box (Table 20, symbol N); type: in vivo, redroot pigweed (Amaranthus retroflexus); details: 320 g/ha, evaluated three weeks after application
# Method in brief: as §2
# lambsquarters = experiment: Test Example 5: herbicidal effect by foliage application, plastic box (Table 20, symbol O); type: in vivo, lambsquarters (Chenopodium album); details: 320 g/ha, evaluated three weeks after application
# Method in brief: as §2
# chickweed = experiment: Test Example 5: herbicidal effect by foliage application, plastic box (Table 20, symbol P); type: in vivo, common chickweed (Stellaria media); details: 320 g/ha, evaluated three weeks after application
# Method in brief: as §2
# false cleavers = experiment: Test Example 5: herbicidal effect by foliage application, plastic box (Table 20, symbol Q); type: in vivo, false cleavers (Galium spurium); details: 320 g/ha, evaluated three weeks after application
# Method in brief: as §2
# persian speedwell = experiment: Test Example 5: herbicidal effect by foliage application, plastic box (Table 20, symbol R); type: in vivo, Persian speedwell (Veronica persica); details: 320 g/ha, evaluated three weeks after application
# Method in brief: as §2
# [3] = amount of applied herbicide 320 g/ha
# [4] = foliage application after 14-day growth
smiles,measurement,setting,value
CCCC(=O)Oc1c(C)nn(C)c(=O)c1-c1c(-c2ccc3c(c2)OCCO3)sc2ccc(C)cc12 [2-159],herbicidal effect on H: barnyard grass,barnyard grass [1]; [3],0 (Herbicidal rate of 5% or less (almost no effect))
same,herbicidal effect on D: Chinese sprangletop,Chinese sprangletop; [3],0 (Herbicidal rate of 5% or less (almost no effect))
same,herbicidal effect on E: rice flat sedge,rice flat sedge; [3],3 (Herbicidal rate of 40% or more and less than 70%)
same,herbicidal effect on F: southern crabgrass (criteria 0-5),southern crabgrass; foliage application,0 (Herbicidal rate of 5% or less (almost no effect))
same,herbicidal effect on G: green foxtail (criteria 0-5),green foxtail; foliage application,0 (Herbicidal rate of 5% or less (almost no effect))
same,herbicidal effect on H: barnyard grass (criteria 0-5),barnyard grass [2]; foliage application,0 (Herbicidal rate of 5% or less (almost no effect))
same,herbicidal effect on I: wild oat (criteria 0-5),wild oat; foliage application,0 (Herbicidal rate of 5% or less (almost no effect))
same,herbicidal effect on J: blackgrass (criteria 0-5),blackgrass; foliage application,0 (Herbicidal rate of 5% or less (almost no effect))
same,herbicidal effect on K: Italian ryegrass (criteria 0-5),Italian ryegrass; foliage application,0 (Herbicidal rate of 5% or less (almost no effect))
same,herbicidal effect on L: windgrass (criteria 0-5),windgrass; foliage application,0 (Herbicidal rate of 5% or less (almost no effect))
same,herbicidal effect on M: velvetleaf (criteria 0-5),velvetleaf; foliage application,2 (Herbicidal rate of 20% or more and less than 40%)
same,herbicidal effect on N: redroot pigweed (criteria 0-5),redroot pigweed; foliage application,5 (Herbicidal rate of 90% or more (almost completely withered))
same,herbicidal effect on O: lambsquarters (criteria 0-5),lambsquarters; foliage application,0 (Herbicidal rate of 5% or less (almost no effect))
same,herbicidal effect on P: chickweed (criteria 0-5),chickweed; foliage application,4 (Herbicidal rate of 70% or more and less than 90%)
same,herbicidal effect on Q: false cleavers (criteria 0-5),false cleavers; foliage application,0 (Herbicidal rate of 5% or less (almost no effect))
same,herbicidal effect on R: persian speedwell (criteria 0-5),persian speedwell; foliage application,4 (Herbicidal rate of 70% or more and less than 90%)
CCCC(=O)Oc1c(C)nn(C)c(=O)c1-c1c(-c2ccc(C(F)(F)F)cc2)sc2cc(Cl)ccc12 [3-146],herbicidal effect on barnyard grass (H),barnyard grass [1]; 320 g/ha,3 (Herbicidal rate of 40% or more and less than 70%)
same,herbicidal effect on Chinese sprangletop (D),Chinese sprangletop; 320 g/ha,3 (Herbicidal rate of 40% or more and less than 70%)
same,herbicidal effect on rice flat sedge (E),rice flat sedge; 320 g/ha,3 (Herbicidal rate of 40% or more and less than 70%)
same,herbicidal effect on F: southern crabgrass (evaluation grade 0-5),southern crabgrass; [4],1 (Herbicidal rate of 5% or more and less than 20%)
same,herbicidal effect on G: green foxtail (evaluation grade 0-5),green foxtail; [4],2 (Herbicidal rate of 20% or more and less than 40%)
same,herbicidal effect on H: barnyard grass (evaluation grade 0-5),barnyard grass [2]; [4],0 (Herbicidal rate of 5% or less (almost no effect))
same,herbicidal effect on I: wild oat (evaluation grade 0-5),wild oat; [4],0 (Herbicidal rate of 5% or less (almost no effect))
same,herbicidal effect on J: blackgrass (evaluation grade 0-5),blackgrass; [4],0 (Herbicidal rate of 5% or less (almost no effect))
same,herbicidal effect on K: Italian ryegrass (evaluation grade 0-5),Italian ryegrass; [4],0 (Herbicidal rate of 5% or less (almost no effect))
same,herbicidal effect on L: windgrass (evaluation grade 0-5),windgrass; [4],0 (Herbicidal rate of 5% or less (almost no effect))
same,herbicidal effect on M: velvetleaf (evaluation grade 0-5),velvetleaf; [4],0 (Herbicidal rate of 5% or less (almost no effect))
same,herbicidal effect on N: redroot pigweed (evaluation grade 0-5),redroot pigweed; [4],3 (Herbicidal rate of 40% or more and less than 70%)
same,herbicidal effect on O: lambsquarters (evaluation grade 0-5),lambsquarters; [4],3 (Herbicidal rate of 40% or more and less than 70%)
same,herbicidal effect on P: chickweed (evaluation grade 0-5),chickweed; [4],5 (Herbicidal rate of 90% or more (almost completely withered))
same,herbicidal effect on Q: false cleavers (evaluation grade 0-5),false cleavers; [4],1 (Herbicidal rate of 5% or more and less than 20%)
same,herbicidal effect on R: persian speedwell (evaluation grade 0-5),persian speedwell; [4],4 (Herbicidal rate of 70% or more and less than 90%)

# Source: patent US20230085307A1, “PYRIDAZINONE COMPOUND AND HERBICIDE” (NISSAN CHEMICAL CORPORATION, priority 2019, published 2023)
